Laboratory results published in ChEMBL document CHEMBL1201862, “PubChem BioAssay data set” (2004).
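Where inhibition never reached the appropriate level, the endpoint shown equals the highest concentration tested. Otherwise, values were interpolated linearly from a five-concentration, 48-hour dose response in 96-well plates. At the GI50, growth is halved.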 The source made the active and inactive calls. Cut-off read from the data, not from the text of the source: active = GI50 up to about 1.1 µM and inactive = higher.

How the values were obtained:
Test in all cases: NCI anticancer screen, dose series, 48 h
T47D = test system: T47D
SK-MEL-28 = test system: SK-MEL-28
UACC-257 = test system: UACC-257
SF-539 = test system: SF-539
K562 = test system: K562
MCF7 = test system: MCF7
HCT-116 = test system: HCT-116
MDA-MB-231 = test system: MDA-MB-231
BT-549 = test system: BT-549
U-251 = test system: U-251
COLO 205 = test system: COLO 205
PC-3 = test system: PC-3
HCC 2998 = test system: HCC 2998
SN12C = test system: SN12C
OVCAR-4 = test system: OVCAR-4
NCI-H226 = test system: NCI-H226
MDA-MB-435 = test system: MDA-MB-435
HOP-92 = test system: HOP-92

Measured: GI50

COc1ccc(/C=C/c2ccnc3ccccc23)c(OC)c1
inactive: T47D > 10 µM | SK-MEL-28 > 10 µM | UACC-257 > 10 µM | SF-539 4.34 µM | K562 3.54 µM | MCF7 3.07 µM | HCT-116 3.56 µM | MDA-MB-231 4.17 µM | BT-549 7.18 µM | U-251 9.02 µM | COLO 205 4.34 µM | PC-3 8.38 µM | HCC 2998 6.82 µM | SN12C > 10 µM | OVCAR-4 > 10 µM | NCI-H226 4.51 µM | MDA-MB-435 2.36 µM

CNC(=O)CCCNC(=O)CCCC(=O)N(C)C
inactive: T47D > 100 µM | SK-MEL-28 > 100 µM | UACC-257 > 100 µM | SF-539 > 100 µM | K562 > 100 µM | MCF7 > 100 µM | HOP-92 > 100 µM | HCT-116 > 100 µM | MDA-MB-231 > 100 µM | BT-549 > 100 µM | U-251 > 100 µM | COLO 205 > 100 µM | PC-3 > 100 µM | HCC 2998 > 100 µM | SN12C > 100 µM | NCI-H226 > 100 µM | MDA-MB-435 > 100 µM

O=C1C[C@@H](c2ccc(O)cc2)[C@@]2(O1)C(=O)O[C@H]([C@@H](O)CO)[C@@H]2O
inactive: T47D > 100 µM | SK-MEL-28 > 100 µM | UACC-257 > 100 µM | SF-539 > 100 µM | K562 > 100 µM | MCF7 > 100 µM | HOP-92 > 100 µM | HCT-116 > 100 µM | MDA-MB-231 > 100 µM | BT-549 > 100 µM | U-251 > 100 µM | COLO 205 > 100 µM | PC-3 > 100 µM | HCC 2998 > 100 µM | SN12C > 100 µM | OVCAR-4 > 100 µM | NCI-H226 > 100 µM | MDA-MB-435 > 100 µM

CC(=O)OC/C=C(\C)CCC(Br)C(C)(C)Br (centres undefined)
inactive: T47D > 10 µM | SK-MEL-28 > 10 µM | UACC-257 > 10 µM | SF-539 > 10 µM | K562 > 10 µM | MCF7 > 10 µM | HCT-116 > 10 µM | MDA-MB-231 > 10 µM | BT-549 > 10 µM | U-251 > 10 µM | COLO 205 > 10 µM | PC-3 > 10 µM | HCC 2998 > 10 µM | SN12C > 10 µM | OVCAR-4 > 10 µM | NCI-H226 > 10 µM | MDA-MB-435 > 10 µM

Cn1c(N2CCCC2)c(C=O)c(=O)n(C)c1=O
inactive: T47D > 100 µM | SK-MEL-28 > 100 µM | UACC-257 > 100 µM | SF-539 > 100 µM | K562 > 100 µM | MCF7 > 100 µM | HOP-92 > 100 µM | HCT-116 > 100 µM | MDA-MB-231 > 100 µM | BT-549 > 100 µM | U-251 > 100 µM | COLO 205 > 100 µM | PC-3 > 100 µM | HCC 2998 > 100 µM | SN12C > 100 µM | OVCAR-4 > 100 µM | NCI-H226 51.8 µM | MDA-MB-435 > 100 µM

Nc1ccc2c(c1)S(=O)(=O)c1cc(N)ccc1-2
inactive: T47D > 100 µM | UACC-257 > 100 µM | SF-539 > 100 µM | K562 > 100 µM | MCF7 > 100 µM | HOP-92 > 100 µM | HCT-116 > 100 µM | MDA-MB-231 > 100 µM | BT-549 > 100 µM | U-251 > 100 µM | COLO 205 > 100 µM | PC-3 > 100 µM | HCC 2998 > 100 µM | SN12C > 100 µM | OVCAR-4 > 100 µM | NCI-H226 > 100 µM | MDA-MB-435 > 100 µM
